Assay results from patent US12594271B2, “Combination therapy for cancer” (Health Research, Inc., priority 2019, dated 2026).

Tested on: MDSCs
Test: MDSC suppression assay: inhibition of T cell proliferation by in vitro generated MDSCs
Format: cell-based, mouse
Conditions: ATRA 10 μM at start of culture, side-by-side with BRQ 1 μM
Method: FIG. 2. […] (A) MDSCs were produced in vitro from mouse bone marrow cells using GM-CSF and G-CSF±BRQ (1 μM) or ATRA (10 μM) at the start of the 4-day culture. Cells tested for their ability to inhibit T cell proliferation (1:1 ratio), as in FIG. 5. Fresh BM=Uncultured bone marrow cells. (B) Similar to A, except that uridine (200 μM) was added to rescue the effect of BRQ. (C) Expression of IRF8 (upper) or SLFN4 (lower) was analyzed by qRT-PCR in Lin^− BM cells cultured as in A for 2 days. Data normalized to the vehicle.
In Vitro Development of MDSCs. Unfractionated mouse bone marrow cells were cultured in dishes with recombinant mouse G-CSF and recombinant mouse GM-CSF (40 ng/ml of each cytokine) for 96 hours to produce MDSCs, as described (Marigo et al. Immunity 32:790-802, 2010). After culture, cells were collected and analyzed by flow cytometry for the indicated cell surface markers. Uncultured or fresh bone marrow (BM) cells served as a negative control.
Cultured Cells Develop Potent Immunosuppressive Capacity. Using the methods described for FIG. 4, experiments were then performed to determine whether the cells generated from this BM culture system functionally behaved as MDSCs, based on their ability to inhibit T cell proliferation in vitro. To that end, fresh BM (i.e., no in vitro culture) or cultured BM cells (i.e., MDSCs at two different MDSC-to-T cell ratios of 1:1 or 1:2) were co-mixed in 96-well plates with CellTrace Violet (CTV)—stained syngeneic naïve splenocytes as a source of T cells and stimulated with or without soluble agonistic anti-CD3 monoclonal antibody (mAb) (1 μg/ml) for 72 hours. After co-culture, CTV dye dilution in the gated CD4^+ or CD8^+ T cell fractions within the splenocyte populations was analyzed by flow cytometry to determine the extent of proliferation based on dye dilution. In FIG. 5, top panels show CTV dye dilution, as determined by flow cytometry and depicted as a histogram; bottom panels indicate the percentage of proliferation, based on quantification of the histogram data. […]

## CC1=C(/C=C/C(C)=C/C=C/C(C)=C/C(=O)O)C(C)(C)CCC1 [ATRA, all-trans retinoic acid]
  ability of in vitro generated MDSCs to inhibit CD4+ or CD8+ T cell proliferation: BRQ is more effective than ATRA
